Read-outs that look alike come from different tables or passages of the source.

In one assay the target is T1, OSBP (Homo sapiens, UniProt P22059).
T1 construct: full-length cDNA in pGEX-4T-1, E. coli Rosetta(DE3), GST fusion, GST tag removed by thrombin
T1 sequence (P22059 1-807): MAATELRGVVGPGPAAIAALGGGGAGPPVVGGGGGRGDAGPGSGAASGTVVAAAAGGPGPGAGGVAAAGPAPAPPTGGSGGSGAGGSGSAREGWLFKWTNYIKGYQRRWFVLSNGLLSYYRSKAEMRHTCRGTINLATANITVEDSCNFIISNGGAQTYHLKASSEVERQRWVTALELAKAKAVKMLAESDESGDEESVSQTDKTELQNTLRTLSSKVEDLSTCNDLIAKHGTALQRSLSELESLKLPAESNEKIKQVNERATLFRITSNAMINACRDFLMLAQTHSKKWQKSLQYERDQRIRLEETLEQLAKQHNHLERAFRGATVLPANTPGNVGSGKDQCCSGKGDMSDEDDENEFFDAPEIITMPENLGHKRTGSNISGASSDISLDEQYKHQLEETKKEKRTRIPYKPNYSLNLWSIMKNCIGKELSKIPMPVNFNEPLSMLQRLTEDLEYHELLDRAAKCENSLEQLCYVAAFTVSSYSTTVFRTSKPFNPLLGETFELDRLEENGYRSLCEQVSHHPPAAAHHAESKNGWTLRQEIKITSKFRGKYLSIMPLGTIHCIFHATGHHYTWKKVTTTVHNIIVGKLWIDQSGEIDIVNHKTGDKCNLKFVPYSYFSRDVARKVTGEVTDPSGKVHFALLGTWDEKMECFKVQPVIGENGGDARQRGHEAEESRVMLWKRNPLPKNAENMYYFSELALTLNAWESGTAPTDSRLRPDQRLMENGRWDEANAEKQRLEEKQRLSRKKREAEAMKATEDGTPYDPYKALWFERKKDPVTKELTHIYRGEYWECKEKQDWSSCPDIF
Briefly: SPR (Biacore 8K, protein immobilised on CM5 by amine coupling, kon/koff). It counts as binding.

For a further assay, the target named is T2, ORP4L (Homo sapiens, UniProt Q969R2).
T2 construct: gene OSBP2; full-length cDNA in pGEX-4T-1, E. coli Rosetta(DE3), GST fusion, GST tag removed by thrombin
T2 sequence (Q969R2 1-916): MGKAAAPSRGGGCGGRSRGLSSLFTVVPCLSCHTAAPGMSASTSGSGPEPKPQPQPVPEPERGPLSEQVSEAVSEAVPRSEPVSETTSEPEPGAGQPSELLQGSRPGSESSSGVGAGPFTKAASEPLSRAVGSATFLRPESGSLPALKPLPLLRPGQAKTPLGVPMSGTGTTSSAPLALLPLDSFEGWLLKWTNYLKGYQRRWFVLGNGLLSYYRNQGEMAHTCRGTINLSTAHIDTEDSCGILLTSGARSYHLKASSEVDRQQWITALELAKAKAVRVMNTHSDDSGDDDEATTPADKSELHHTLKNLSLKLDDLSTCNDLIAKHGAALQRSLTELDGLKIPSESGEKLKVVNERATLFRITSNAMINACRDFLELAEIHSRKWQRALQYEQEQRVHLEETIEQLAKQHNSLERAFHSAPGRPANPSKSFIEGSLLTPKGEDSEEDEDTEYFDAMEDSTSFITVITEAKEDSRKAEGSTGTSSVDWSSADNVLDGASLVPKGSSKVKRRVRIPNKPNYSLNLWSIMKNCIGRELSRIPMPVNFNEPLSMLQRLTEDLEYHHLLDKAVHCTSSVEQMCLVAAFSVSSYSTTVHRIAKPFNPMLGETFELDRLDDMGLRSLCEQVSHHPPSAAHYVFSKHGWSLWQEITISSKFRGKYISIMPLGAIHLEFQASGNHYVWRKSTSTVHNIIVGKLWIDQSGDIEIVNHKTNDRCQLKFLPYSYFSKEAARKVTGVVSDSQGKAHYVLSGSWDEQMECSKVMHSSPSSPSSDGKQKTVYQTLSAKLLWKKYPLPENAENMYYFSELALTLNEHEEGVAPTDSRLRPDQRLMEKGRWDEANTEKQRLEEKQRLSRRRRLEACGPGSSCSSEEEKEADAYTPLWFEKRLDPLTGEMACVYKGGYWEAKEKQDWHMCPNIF
The description is as above. It counts as binding. Conditions: PBST pH 7.4, 25 °C; acyl chains of PI(4)P not told for this test (diC8 named only for the competition test).

As to `COc1ccc(C(=O)O[C@H]2[C@H](O[C@@H]3[C@@H](OC(C)=O)[C@H](O[C@H]4C[C@H]5[C@@H]6CC=C7C[C@@H](O)CC[C@]7(C)[C@H]6CC[C@]5(C)[C@@]4(O)[C@H](C)C(=O)CCC(C)C)OC[C@@H]3O)OC[C@@H](O)[C@@H]2O)cc1` [OSW-1], binding at OSBP was put at a Kd of 1.8 ± 0.37 µM.

Turning to PI(4)P, the Kd stood at 4.3 ± 1.2 µM on OSBP (PBST pH 7.4, 25 °C, acyl chains of PI(4)P not told for this test (diC8 named only for the competition test)) and 12.7 ± 2.1 µM on ORP4L.

A word on the Kd: it is the free concentration of one partner at which half of the binding sites on the other are occupied at equilibrium, for simple one-to-one binding. High values mean a looser complex, low ones a tighter complex.

(Values after publication PMC9338045, “An acquired phosphatidylinositol 4-phosphate transport initiates T-cell deterioration and leukemogenesis” (Nature Communications, 2022).)
